The assay deals with calcium channels. The following applies: read-out: IC50 values for blocking calcium channels; rat cerebellar granule cells, fura2 fluorescence, 37° C.

As a reminder, the IC50 is the concentration that gives 50% inhibition.

`COc1ccc(CCN(C)CCCC(C#N)(c2ccc(OC)c(OC)c2)C(C)C)cc1OC` (stereo not shown) [Verapamil]: the IC50 was determined as 4.8 µM.

Source of the values: US5804554A, “Calcium channel blocking polypeptides from filistata hibernalis” (priority 1995, dated 1998).
